# Results reported in patent publication US11299458B2, “Crystalline compounds” (OTSUKA AMERICA PHARMACEUTICAL, INC., priority 2015, dated 2022).
# “Also recorded” adds a separate entry of the source.
# What was measured:
# Format in all cases: physicochemical
# [1] = Dynamic vapor sorption/desorption isotherm (moisture balance); settings: 25° C.
# Excerpt: Based on the dynamic vapor sorption/desorption data collected (FIG. 3), Crystalline Form A obtained is a non-hygroscopic material.
# Data acquisition parameters for dynamic vapor sorption/desorption isotherm: […]
# [2] = Slurry in dichloromethane at ambient temperature, solvent mediated form conversion by XRPD; settings: 16 days, no seeds, hydrochloride
# Protocol: (§1) Slurry Experiments: Suspensions are prepared by adding enough solids to a given solvent so that excess solids are present. The mixture is then agitated in a sealed vial at ambient temperature or an elevated temperature. After a given period of time, the solids are isolated by vacuum filtration and analyzed.
# 558.9 mg of Crystalline Form A from Example 5 above is slurried in 5 mL dichloromethane. The preparation is stirred (300 RPM) in a sealed vial at ambient temperature for 16 days. White solids are isolated by vacuum filtration, rinsed with 1 mL of dichloromethane, and briefly dried under nitrogen. […] The XRPD pattern is collected with a PANalytical X'Pert PRO MPD diffractometer using an incident beam of Cu radiation produced using an Optix long, fine-focus source. An elliptically graded multilayer mirror is used to focus Cu Kα X-rays through the specimen and onto the detector. Prior to the analysis, a silicon specimen (NIST SRM 640e) is analyzed to verify the observed position of the Si 111 peak is consistent with the NIST-certified position. A specimen of the sample is sandwiched between 3-μm-thick films and analyzed in transmission geometry. A beam-stop, short antiscatter extension, and an antiscatter knife edge are used to minimize the background generated by air. Soller slits for the incident and diffracted beams are used to minimize broadening from axial divergence. […]
# [3] = Polymorph screen: crystallization, slurry, vapor stress and pH buffer experiments, XRPD result
# Protocol: Antisolvent Precipitation: Solutions are prepared in various solvents and filtered through a 0.2-μm nylon filter into a vial. Antisolvent is then added until precipitation is observed. The resulting solids are isolated by vacuum filtration and analyzed.
# Crash Cool (CC): Solutions are prepared in various solvents at an elevated temperature and filtered warm through a 0.2-μm nylon filter into a pre-cooled vial. The vial is placed in a (dry ice+isopropanol) cooling bath. Samples are placed into a freezer if no solids are observed to immediately precipitate. The resulting solids are isolated by vacuum filtration and analyzed.
# (§2) Fast Evaporation (FE): Solutions are prepared in various solvents and sonicated between aliquot additions to assist in dissolution. Once a mixture reaches complete dissolution, as judged by visual observation, the solution is filtered through a 0.2-μm nylon filter. The filtered solution is allowed to evaporate at ambient conditions in an uncapped vial. Solutions are evaporated to dryness unless designated as partial evaporations. The solids that formed are isolated and analyzed.
# Slow Cooling (SC): Solutions are prepared in various solvents at an elevated temperature. The solutions are filtered warm through a 0.2-μm nylon filter into a warm vial. The vial is capped and left on the hot plate, and the hot plate is turned off to allow the sample to cool slowly to ambient temperature. If no solids are present after cooling to ambient temperature, the sample is placed in a refrigerator and/or freezer for further cooling. Solids are collected by vacuum filtration and analyzed.
# as §2, with “Slow” for “Fast”, “(SE):” for “(FE):”, “sonicated” for “sonicated between aliquot additions”, “a vial covered with aluminum foil perforated with pinholes.” for “an uncapped vial.”, “form” for “formed”
# as §1
# Vapor Diffusion (VD): Solutions are prepared in various solvents and filtered through a 0.2-μm nylon filter. The filtered solution is dispensed into a 1-dram vial, which is then placed inside a 20-mL vial containing antisolvent. The 1-dram vial is left uncapped and the 20-mL vial is capped to allow vapor diffusion to occur. The resulting solids are isolated and analyzed.
# Vapor Stress (VS): A solid sample is placed into a 1-dram vial. The 1-dram vial is then placed into a 20-mL vial containing solvent. The 20-mL vial is capped and left at ambient conditions for a measured time period. Samples are analyzed after removal from the stress environment.
# Crystalline Form A through Form F are prepared as follows by using Crystalline Form A obtained from Example 1 above. A variety of crystallization techniques are used, including evaporation, cooling, solvent/antisolvent precipitation, slurry, vapor stress, and vapor diffusion, as described above.
# Crystalline Forms D, E, and F—Crystalline Form A is dissolved in pH adjusted buffered media. Undissolved solid or precipitate observed is analyzed by XRPD. Some experiments are conducted at elevated temperature to increase solubility, the undissolved solids are also analyzed by XRPD.
# Crystalline Form A from Example 5 is used to make the following crystalline forms.
compound,measurement,setting,value
"Cl.c1ccc2cc([C@]34CNC[C@H]3C4)ccc2c1 [Crystalline Form A, (1R,5S)-1-(naphthalen-2-yl)-3-azabicyclo[3.1.0]hexane hydrochloride]",weight loss upon initial equilibration at 5% RH,[1],0.03%
same,hygroscopicity based on dynamic vapor sorption/desorption data,[1]; 5% to 95% RH,non-hygroscopic
same,weight gain from 5% to 95% RH,[1]; sorption,0.10%
same,Weight % chg,"[1]; desorption, Samp RH 4.95%",−0.032 % chg
same,Weight % chg,"[1]; desorption, Samp RH 15.20%",−0.025 % chg
same,Weight % chg,"[1]; desorption, Samp RH 25.12%",−0.021 % chg
same,Weight % chg,"[1]; desorption, Samp RH 35.13%",−0.016 % chg
same,Weight % chg,"[1]; desorption, Samp RH 45.09%",−0.013 % chg
same,Weight % chg,"[1]; desorption, Samp RH 55.08%",−0.007 % chg
same,Weight % chg,"[1]; desorption, Samp RH 64.96%",0.003 % chg
same,Weight % chg,"[1]; desorption, Samp RH 75.28%",0.019 % chg
same,Weight % chg,"[1]; desorption, Samp RH 85.08%",0.037 % chg
same,Weight % chg,"[1]; sorption, Samp RH 5.06%",−0.034 % chg
same,Weight % chg,"[1]; sorption, Samp RH 15.24%",−0.025 % chg
same,Weight % chg,"[1]; sorption, Samp RH 24.81%",−0.024 % chg
same,Weight % chg,"[1]; sorption, Samp RH 34.82%",−0.019 % chg
same,Weight % chg,"[1]; sorption, Samp RH 44.81%",−0.016 % chg
same,Weight % chg,"[1]; sorption, Samp RH 54.86%",−0.012 % chg
same,Weight % chg,"[1]; sorption, Samp RH 64.82%",−0.005 % chg
same,Weight % chg,"[1]; sorption, Samp RH 74.66%",0.005 % chg
same,Weight % chg,"[1]; sorption, Samp RH 84.55%",0.024 % chg
same,Weight % chg,"[1]; sorption, Samp RH 94.54%",0.068 % chg
same,Weight % chg,"[1]; start, Samp RH 1.70%",0.000 % chg
same,solid form after slurry in dichloromethane,[2],Product is Crystalline Form A; also recorded: does not cause a solvent mediated form conversion to Crystalline Form B
same,XRPD Result,"[3]; 1-propanol, CC (70° C. to dry ice/IPA), freezer/2 d",B + weak A
same,XRPD Result,"[3]; DCM, SE",A + B
same,XRPD Result,"[3]; EtOH, CC (70° C. to dry ice/IPA), freezer/2 d",C + weak A
same,XRPD Result,"[3]; EtOH, FE",A + B
same,XRPD Result,"[3]; EtOH, SC (70° C. to RT, refrigerator/2 d, freezer/8 d)",A + weak C
same,XRPD Result,"[3]; HFIPA/IPE, AS precipitation",A + weak
same,XRPD Result,"[3]; HFIPA, SE",A + weak B
same,XRPD Result,"[3]; IPA, CC (70° C. to dry ice/IPA), freezer/2 d, about 27 mg scale, 10 mg/mL",C + possible
same,XRPD Result,"[3]; TFE, SE",A + weak B
